This passage reports EC50 results from patent US20090275574A1, “NOVEL COMPOUNDS-300” (ASTRAZENECA AB, priority 2008, published 2009).

Test [1] deals with T1, cloned human M2 receptor (Homo sapiens, UniProt P08172).
T1 construct: purchased Perkin-Elmer RBHM2M; host or cells: Chinese hamster ovary cells (CHO), membranes
T1 sequence (P08172 1-466): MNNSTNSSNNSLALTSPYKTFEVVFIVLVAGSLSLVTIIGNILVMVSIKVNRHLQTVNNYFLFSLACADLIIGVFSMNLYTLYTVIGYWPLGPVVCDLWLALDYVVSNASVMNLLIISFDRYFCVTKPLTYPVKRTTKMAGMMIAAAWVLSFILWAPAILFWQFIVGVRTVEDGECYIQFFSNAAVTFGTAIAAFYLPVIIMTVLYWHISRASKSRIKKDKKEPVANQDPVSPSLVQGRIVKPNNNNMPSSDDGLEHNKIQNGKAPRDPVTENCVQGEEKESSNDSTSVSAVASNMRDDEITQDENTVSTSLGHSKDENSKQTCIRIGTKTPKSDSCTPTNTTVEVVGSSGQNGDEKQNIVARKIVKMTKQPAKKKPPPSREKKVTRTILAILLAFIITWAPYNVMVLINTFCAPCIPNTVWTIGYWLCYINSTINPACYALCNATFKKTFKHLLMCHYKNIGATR
Briefly: hM2 receptor GTPγS binding. Type of test: biochemical. The settings on record: CHO membranes expressing hM2, [35S]GTPγS binding.

For test [2], the target named is T2, cloned human M4 receptor (Homo sapiens, UniProt P08173).
T2 construct: purchased Perkin-Elmer RBHM4M; host or cells: Chinese hamster ovary cells (CHO), membranes
T2 sequence (P08173 1-479): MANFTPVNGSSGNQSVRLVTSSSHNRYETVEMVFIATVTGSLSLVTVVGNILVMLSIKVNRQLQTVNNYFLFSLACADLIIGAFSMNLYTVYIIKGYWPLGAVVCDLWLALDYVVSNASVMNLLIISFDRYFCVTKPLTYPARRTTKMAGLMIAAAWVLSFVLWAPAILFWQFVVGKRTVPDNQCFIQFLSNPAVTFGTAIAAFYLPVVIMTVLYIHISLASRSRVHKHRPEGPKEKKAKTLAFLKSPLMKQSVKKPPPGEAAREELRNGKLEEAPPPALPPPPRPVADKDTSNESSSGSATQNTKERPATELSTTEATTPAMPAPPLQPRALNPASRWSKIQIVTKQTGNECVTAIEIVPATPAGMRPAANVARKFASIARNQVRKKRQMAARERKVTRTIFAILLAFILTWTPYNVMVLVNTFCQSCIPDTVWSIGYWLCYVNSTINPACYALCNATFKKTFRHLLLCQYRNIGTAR
Description: hM4 receptor GTPγS binding. The settings on record: CHO membranes expressing hM4, [35S]GTPγS binding. In kind it is biochemical. The protocol: hM4 Receptor GTPγS Binding Membranes produced from Chinese hamster ovary cells (CHO) expressing the cloned human M4 receptor (human Muscarinic receptor subtype 4, gene bank access NM_000741), are obtained from Perkin-Elmer (RBHM4M). The membranes are thawed at 37° C., passed 3 times through a 23-gauge blunt-end needle, diluted in the GTPγS binding buffer (50 mM Hepes, 20 mM NaOH, 100 mM NaCl, 1 mM EDTA, 5 mM MgCl2, pH 7.4, 100 μM DTT). The EC50, IC50 and Emax of the compounds of the invention are evaluated from 10-point dose-response curves (three fold concentration range) done in 60 μl in 384-well non-specific binding surface plate (Corning). Ten microliters from the dose-response curves plate (5× concentration) are transferred to another 384 well plate containing 25 μl of the following: 10 μg of hM4 membranes, 500 μg of Flashblue beads (Perkin-Elmer) and GDP 40 μM. An additional 15 μl containing 3.3× (60,000 dpm) of GTPγ^35S (0.4 nM final) are added to the wells resulting in a total well volume of 50 μl. Basal and maximal stimulated [^35S]GTPγS binding are determined in absence and presence of 30 μM final of acetylcholine agonist. The membranes/beads mix are pre-incubated for 15 minutes at room temperature with 40 μM GDP prior to distribution in plates (20 μM final). The reversal of acetylcholine-induced stimulation (10 μM final) of [^35S]GTPγS binding is used to assay the antagonist properties (IC50) of the compounds. The plates are incubated for 60 minutes at room temperature then centrifuged at 400 rpm for 5 minutes. The radioactivity (cpm) is counted in a Trilux (Perkin-Elmer). Values of EC50, IC50 and Emax are obtained using sigmoidal fits of a non-linear curve-fitting program (XLfit version 4.2.2 Excel add-in version 4.2.2 build 18 math 1Q version 2.1.2 build 18) of percent stimulated [^35S]GTPγS binding vs. log(molar ligand). All pEC50 and pIC50 values are reported as arithmetic means±standard error of mean of ‘n’ independent experiments.
For orientation: GTPγS resists hydrolysis and so accumulates on activated G proteins.

Regarding `CCOCC1CCC(N2CCC(N3C(=O)NC[C@H]4CCCC[C@@H]43)CC2)CC1` (mixture of isomers) [Example 08, (4aR,8aS)-1-(1-(4-(ethoxymethyl)cyclohexyl)piperidin-4-yl)octahydroquinazolin-2(1H)-one], the concentration for a half-maximal effect (EC50) in test [1] came to 350 nM; in test [2] it was 985 nM.

For the compound `O=C1CO[C@H]2CCCC[C@@H]2N1C1CCN(C2CCC(COCC(F)F)CC2)CC1` (single isomer, unassigned) [Example 26], the EC50 in test [1] was over 3600 nM; in test [2], over 90000 nM.

`CCOCC1CCC(N2CCC(N3C(=O)CO[C@H]4CCCC[C@@H]43)CC2)C1` (single isomer, unassigned) [Example 44]: the EC50 came to 1600 nM in test [1] and 5360 nM in test [2].

For orientation: EC50 means the concentration giving half of the maximal effect. High values mean lower potency in that assay, low ones higher potency in that assay.
